Here are results for two compounds from ChEMBL document CHEMBL3856285, “Recent progress in the identification of adenosine monophosphate-activated protein kinase (AMPK) activators” (Bioorg Med Chem Lett, 2016).

pEC50: −log10 of the molar value.

In one assay the target is AMPK alpha2/beta2/gamma3 (Homo sapiens, UniProt O43741+P54646+Q9UGI9). In words: Activation of human recombinant AMPK alpha2/beta2/gamma3 expressed in African green monkey COS7 cells assessed as increase in biotinylated […] (1 to 120 residues) peptide phosphorylation at Ser-79 residue measured after 60 mins by Alphascreen assay. Type of assay: cell-based, COS-7.
The next assay has as its target AMPK alpha2/beta2/gamma1 (Homo sapiens, UniProt O43741+P54619+P54646). In words: Activation of human recombinant AMPK alpha2/beta2/gamma1 expressed in African green monkey COS7 cells assessed as increase in biotinylated […] (1 to 120 residues) peptide phosphorylation at Ser-79 residue measured after 60 mins by Alphascreen assay. Format: cell-based, COS-7. A general note: Bead proximity is the source of the signal in Alpha formats.

In assay [1] the target is T1, AMPK alpha1/beta2/gamma1 (Homo sapiens, UniProt O43741+P54619+Q13131). In words: Activation of human recombinant AMPK alpha1/beta2/gamma1 expressed in African green monkey COS7 cells assessed as increase in biotinylated […] (1 to 120 residues) peptide phosphorylation at Ser-79 residue measured after 60 mins by Alphascreen assay. Format: cell-based, COS-7.
Target sequence in this assay (O43741 whole entry, the tested form may be a part): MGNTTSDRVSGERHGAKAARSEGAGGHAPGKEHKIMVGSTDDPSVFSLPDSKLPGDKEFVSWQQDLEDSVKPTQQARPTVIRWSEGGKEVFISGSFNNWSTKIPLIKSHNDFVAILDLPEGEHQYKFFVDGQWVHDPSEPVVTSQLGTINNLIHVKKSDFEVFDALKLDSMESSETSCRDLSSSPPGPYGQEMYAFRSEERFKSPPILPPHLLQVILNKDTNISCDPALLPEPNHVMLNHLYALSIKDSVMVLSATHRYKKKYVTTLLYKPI
Target sequence in this assay (P54619 whole entry, the tested form may be a part): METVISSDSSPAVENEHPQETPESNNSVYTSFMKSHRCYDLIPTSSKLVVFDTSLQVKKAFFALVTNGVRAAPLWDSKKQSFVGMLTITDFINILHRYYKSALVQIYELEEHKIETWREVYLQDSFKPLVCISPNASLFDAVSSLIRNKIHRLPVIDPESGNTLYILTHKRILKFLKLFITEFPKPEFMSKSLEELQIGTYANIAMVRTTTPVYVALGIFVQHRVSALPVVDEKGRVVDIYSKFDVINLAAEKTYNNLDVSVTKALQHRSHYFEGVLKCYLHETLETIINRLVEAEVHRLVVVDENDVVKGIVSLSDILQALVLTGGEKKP
Target sequence in this assay (Q13131 whole entry, the tested form may be a part): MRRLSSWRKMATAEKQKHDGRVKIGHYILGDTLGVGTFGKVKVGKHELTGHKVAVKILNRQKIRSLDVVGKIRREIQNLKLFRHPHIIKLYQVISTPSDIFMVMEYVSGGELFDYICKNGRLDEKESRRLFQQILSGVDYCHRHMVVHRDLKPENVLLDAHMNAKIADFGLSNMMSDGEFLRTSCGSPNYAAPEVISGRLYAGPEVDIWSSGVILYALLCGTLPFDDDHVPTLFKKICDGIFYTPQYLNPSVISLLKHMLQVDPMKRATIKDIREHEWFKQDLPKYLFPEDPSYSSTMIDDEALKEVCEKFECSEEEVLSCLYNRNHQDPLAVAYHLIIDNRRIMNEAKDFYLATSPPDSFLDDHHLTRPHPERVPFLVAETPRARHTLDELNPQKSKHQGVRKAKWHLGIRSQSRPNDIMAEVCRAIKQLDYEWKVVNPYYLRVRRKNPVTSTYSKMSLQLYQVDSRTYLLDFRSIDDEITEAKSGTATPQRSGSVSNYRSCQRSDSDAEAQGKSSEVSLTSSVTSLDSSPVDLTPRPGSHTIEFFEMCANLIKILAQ
The target of assay [2] is AMPK alpha2/beta1/gamma1 (Homo sapiens) (UniProt P54646+P54619+Q9Y478). In words: Activation of human recombinant AMPK alpha2/beta1/gamma1 expressed in African green monkey COS7 cells assessed as increase in biotinylated […] (1 to 120 residues) peptide phosphorylation at Ser-79 residue measured after 60 mins by Alphascreen assay relative to control. Format: cell-based. Conditions: COS-7.

Assay [3] has as its target T2, AMP-activated protein kinase (AMPK) alpha-1/beta-1/gamma-1 (Homo sapiens, UniProt P54619+Q13131+Q9Y478). In words: Activation of human recombinant AMPK alpha1/beta1/gamma1 expressed in African green monkey COS7 cells assessed as increase in biotinylated […] (1 to 120 residues) peptide phosphorylation at Ser-79 residue measured after 60 mins by Alphascreen assay. Format: cell-based, COS-7.

Assay [4] addresses T1, AMPK alpha1/beta2/gamma1. In words: Activation of human recombinant AMPK alpha1/beta2/gamma1 expressed in African green monkey COS7 cells assessed as increase in biotinylated […] (1 to 120 residues) peptide phosphorylation at Ser-79 residue measured after 60 mins by Alphascreen assay relative to control. Conditions: COS-7. Type of assay: cell-based.
Target sequence in this assay (O43741 whole entry, looked up, the tested form may be a part): as the sequence (O43741 whole entry, the tested form may be a part) above
Target sequence in this assay (P54619 whole entry, looked up, the tested form may be a part): as the sequence (P54619 whole entry, the tested form may be a part) above
Target sequence in this assay (Q13131 whole entry, looked up, the tested form may be a part): as the sequence (Q13131 whole entry, the tested form may be a part) above
For a further assay, the target named is AMPK alpha2/beta1/gamma1 (Homo sapiens, UniProt P54619+P54646+Q9Y478). The assay can be described thus: Activation of human recombinant AMPK alpha2/beta1/gamma1 expressed in African green monkey COS7 cells assessed as increase in biotinylated […] (1 to 120 residues) peptide phosphorylation at Ser-79 residue measured after 60 mins by Alphascreen assay. Format: cell-based, COS-7.

In assay [5] the target is AMPK alpha2/beta2/gamma3 (Homo sapiens) (UniProt P54646+O43741+Q9UGI9). The assay can be described thus: Activation of human recombinant AMPK alpha2/beta2/gamma3 expressed in African green monkey COS7 cells assessed as increase in biotinylated […] (1 to 120 residues) peptide phosphorylation at Ser-79 residue measured after 60 mins by Alphascreen assay relative to control. Format: cell-based. Conditions: COS-7.

For assay [6], the target named is AMP-activated protein kinase (AMPK) alpha-1/beta-1/gamma-1 (Homo sapiens) (UniProt P54619+Q9Y478+Q13131). The assay can be described thus: Activation of human recombinant AMPK alpha1/beta1/gamma1 expressed in African green monkey COS7 cells assessed as increase in biotinylated […] (1 to 120 residues) peptide phosphorylation at Ser-79 residue measured after 60 mins by Alphascreen assay relative to control. Conditions: COS-7. Format: cell-based.

In assay [7] the target is AMPK alpha2/beta2/gamma1 (Homo sapiens) (UniProt P54646+O43741+P54619). In words: Activation of human recombinant AMPK alpha2/beta2/gamma1 expressed in African green monkey COS7 cells assessed as increase in biotinylated […] (1 to 120 residues) peptide phosphorylation at Ser-79 residue measured after 60 mins by Alphascreen assay relative to control. Type of assay: cell-based. The conditions noted are these: COS-7.

Assay [8] addresses T2, AMP-activated protein kinase (AMPK) alpha-1/beta-1/gamma-1. The assay can be described thus: Activation of full length human recombinant N-terminal GST-tagged AMPK alpha1/beta1/gamma1 expressed in baculovirus infected High Five cells using NH2-HMRSAMSGLHLVKRR CONH2 substrate after 60 mins by ADP-Glo kinase assay. On the set-up: species or system BTI-TN-5B1-4. For orientation: In ADP-Glo the light output rises with the ADP produced.

As usually defined, the pEC50 is −log10 of the EC50, conventionally taken in molar units.

T2 sequence (P54619 whole entry, the tested form may be a part): as the sequence (P54619 whole entry, the tested form may be a part) above
T2 sequence (Q9Y478 whole entry, the tested form may be a part): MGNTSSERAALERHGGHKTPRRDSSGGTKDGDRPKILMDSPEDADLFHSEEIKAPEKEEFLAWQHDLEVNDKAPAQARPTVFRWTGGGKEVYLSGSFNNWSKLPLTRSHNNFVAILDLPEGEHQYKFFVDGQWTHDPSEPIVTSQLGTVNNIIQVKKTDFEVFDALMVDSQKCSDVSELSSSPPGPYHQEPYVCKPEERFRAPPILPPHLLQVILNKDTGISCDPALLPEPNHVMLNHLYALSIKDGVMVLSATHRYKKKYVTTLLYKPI
T2 sequence (Q13131 whole entry, the tested form may be a part): as the sequence (Q13131 whole entry, the tested form may be a part) above
Sequence of AMPK alpha2/beta2/gamma3 (Homo sapiens) (O43741 whole entry, looked up, the tested form may be a part): as the sequence (O43741 whole entry, the tested form may be a part) above
Sequence of AMPK alpha2/beta2/gamma3 (Homo sapiens) (P54646 whole entry, looked up, the tested form may be a part): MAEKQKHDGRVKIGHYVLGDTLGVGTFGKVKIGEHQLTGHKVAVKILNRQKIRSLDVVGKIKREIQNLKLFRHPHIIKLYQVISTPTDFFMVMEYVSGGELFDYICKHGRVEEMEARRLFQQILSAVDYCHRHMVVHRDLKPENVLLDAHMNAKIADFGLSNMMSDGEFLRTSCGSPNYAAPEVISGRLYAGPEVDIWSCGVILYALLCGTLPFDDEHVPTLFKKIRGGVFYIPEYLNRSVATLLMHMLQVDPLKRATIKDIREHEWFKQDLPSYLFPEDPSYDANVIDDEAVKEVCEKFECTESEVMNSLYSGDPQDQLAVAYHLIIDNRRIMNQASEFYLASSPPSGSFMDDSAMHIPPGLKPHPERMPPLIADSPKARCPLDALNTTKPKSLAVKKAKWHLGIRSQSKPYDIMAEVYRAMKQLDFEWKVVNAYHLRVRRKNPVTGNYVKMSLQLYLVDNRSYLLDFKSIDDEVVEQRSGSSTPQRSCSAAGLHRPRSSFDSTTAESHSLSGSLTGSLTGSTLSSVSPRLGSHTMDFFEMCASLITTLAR
Sequence of AMPK alpha2/beta2/gamma3 (Homo sapiens) (Q9UGI9 whole entry, looked up, the tested form may be a part): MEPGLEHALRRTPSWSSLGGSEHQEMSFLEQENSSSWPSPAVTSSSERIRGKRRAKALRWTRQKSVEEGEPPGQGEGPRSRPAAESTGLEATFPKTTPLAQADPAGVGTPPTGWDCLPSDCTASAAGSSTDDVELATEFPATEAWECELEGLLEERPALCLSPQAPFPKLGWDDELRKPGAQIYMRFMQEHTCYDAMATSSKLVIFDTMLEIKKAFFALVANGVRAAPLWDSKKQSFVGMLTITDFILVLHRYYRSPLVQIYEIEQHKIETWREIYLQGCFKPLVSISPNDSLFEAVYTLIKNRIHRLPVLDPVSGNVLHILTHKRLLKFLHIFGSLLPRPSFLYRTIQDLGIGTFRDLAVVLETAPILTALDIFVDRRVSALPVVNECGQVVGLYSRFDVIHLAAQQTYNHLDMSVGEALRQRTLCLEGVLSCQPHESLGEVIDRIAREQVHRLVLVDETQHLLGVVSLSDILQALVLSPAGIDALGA

In the case of `Oc1cccc(O)c1-c1ccc(-c2cc3nc(O[C@@H]4CO[C@H]5[C@@H]4OC[C@H]5O)[nH]c3cc2Cl)cc1`, the pEC50 on AMPK alpha2/beta2/gamma3 was 8.40; at AMPK alpha2/beta2/gamma1 it was 8.70; at AMPK alpha1/beta2/gamma1 [1] it was 8.40; in [3], 7.96; on AMPK alpha2/beta1/gamma1, 7.57. The fold change (FC) was determined as 13 in assay [2]; 10 at AMPK alpha1/beta2/gamma1 [4]; 16 in [5]; 27 in [6]; 13 in assay [7].
Consider `CS(=O)(=O)Nc1ccc(-c2ccc(-c3nc4nc(O[C@@H]5CO[C@H]6[C@@H]5OC[C@H]6O)[nH]c4cc3Cl)cc2)c(F)c1`, for which the pEC50 in [8] was 8.52.
